This is an account of results in US8686024B2, “Indoline derivatives” (priority 2009, dated 2014).

The target of series [1] is T1, butyrylcholine esterase (BuChE) (Mus musculus, UniProt Q03311).
T1 construct: brain homogenate and serum of mouse were used as choline esterase enzyme sources; from tissue; host or cells: mouse serum
Nature of the series: In vitro assay for choline esterase inhibition (Ellman method), butyrylthiocholine substrate, mouse serum. To be noted: for Ratio AChE/BuChE: selectivity for BuChE inhibition: IC50 (AchE)/IC50 (BuChE). It is filed as biochemical. The method, boiled down:
(§1)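 Enzyme sources were mouse brain homogenate for AChE (acetylthiocholine substrate) and mouse serum for BuChE (butyrylthiocholine substrate). Compounds were diluted in DMSO and incubated with substrate and DTNB, and the thiocholine–DTNB product was read at 415 nm (Ellman method). Selectivity was taken as IC50(AChE)/IC50(BuChE).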

The target of series [2] is T2, acetylcholine esterase (AChE) (Mus musculus, UniProt P21836).
T2 construct: brain homogenate and serum of mouse were used as choline esterase enzyme sources; from tissue; host or cells: mouse brain homogenate
T2 sequence (P21836 32-614): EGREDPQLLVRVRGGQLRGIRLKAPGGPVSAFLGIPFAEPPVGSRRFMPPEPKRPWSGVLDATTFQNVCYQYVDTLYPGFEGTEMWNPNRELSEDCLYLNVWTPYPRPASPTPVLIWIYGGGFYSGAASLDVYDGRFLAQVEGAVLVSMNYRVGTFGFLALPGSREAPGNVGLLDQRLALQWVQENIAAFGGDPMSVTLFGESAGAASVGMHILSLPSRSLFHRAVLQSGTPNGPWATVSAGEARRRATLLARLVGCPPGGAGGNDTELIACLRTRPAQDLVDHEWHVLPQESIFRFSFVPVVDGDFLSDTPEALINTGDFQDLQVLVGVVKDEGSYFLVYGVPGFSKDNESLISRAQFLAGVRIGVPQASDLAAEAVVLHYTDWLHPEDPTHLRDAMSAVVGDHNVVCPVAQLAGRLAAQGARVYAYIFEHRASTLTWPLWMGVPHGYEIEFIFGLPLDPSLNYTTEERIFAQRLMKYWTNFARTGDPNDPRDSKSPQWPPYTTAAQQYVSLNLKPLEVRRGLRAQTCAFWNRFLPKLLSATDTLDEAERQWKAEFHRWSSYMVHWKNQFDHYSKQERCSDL
Nature of the series: In vitro assay for choline esterase inhibition (Ellman method), acetylthiocholine substrate, mouse brain homogenate. In kind it is biochemical. The method, boiled down: as §1
For orientation: In Ellman's method for cholinesterases, released thiocholine reacts with DTNB.

Entries after “also recorded” stand apart in the source; their conditions may differ. Some results are limits rather than exact numbers.

T1 sequence (Q03311 30-603): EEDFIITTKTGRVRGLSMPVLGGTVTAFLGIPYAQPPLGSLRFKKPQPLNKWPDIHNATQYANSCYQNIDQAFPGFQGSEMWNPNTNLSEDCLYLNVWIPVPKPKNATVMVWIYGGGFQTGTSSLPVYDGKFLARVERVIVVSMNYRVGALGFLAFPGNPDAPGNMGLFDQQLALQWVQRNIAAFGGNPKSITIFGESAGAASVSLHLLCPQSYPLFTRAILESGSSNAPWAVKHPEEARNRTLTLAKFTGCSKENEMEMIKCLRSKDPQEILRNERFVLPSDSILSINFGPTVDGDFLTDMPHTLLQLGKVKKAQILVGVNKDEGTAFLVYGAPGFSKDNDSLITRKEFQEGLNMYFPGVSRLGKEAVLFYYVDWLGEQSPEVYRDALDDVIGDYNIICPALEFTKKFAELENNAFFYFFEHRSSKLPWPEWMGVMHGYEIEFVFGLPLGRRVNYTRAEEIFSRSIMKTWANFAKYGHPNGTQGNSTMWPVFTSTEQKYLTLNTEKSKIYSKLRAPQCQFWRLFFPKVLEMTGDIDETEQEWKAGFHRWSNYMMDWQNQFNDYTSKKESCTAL

As a reminder, the melting point is the temperature of the solid-liquid transition. `O=C(Nc1ccc(-c2ccccc2)cc1)Oc1ccc2c(c1)CCN2Cc1ccccc1` gave a melting point of 175 to 178 °C. Same read-out and setting: as for `O=C(Nc1ccccc1)Oc1ccc2c(c1)CCN2Cc1ccccc1`, the figure is 105 to 112 °C. The same measure, in the same setting: as for `CNC(=O)Oc1ccc2c(c1)CCN2`, the figure is 109 to 112 °C; as for `O=C(Nc1ccc(Oc2ccccc2)cc1)Oc1ccc2c(c1)CCN2Cc1ccccc1`, 155 to 160 °C. Turning to `COc1ccc(NC(=O)Oc2ccc3c(c2)CCN3)cc1`, the melting point fell in the range of 220 to 224 °C. Turning to `COc1ccc(NC(=O)Oc2ccc3c(c2)CCN3)cc1OC`, the melting point lay in the range of 140 to 144 °C. For the compound `O=C(NCC1CCCCC1)Oc1ccc2c(c1)CCN2`, the melting point fell in the range of 129 to 133 °C. Compound `CCCN(CCC)C(=O)C1Cc2cc(OC(=O)Nc3ccc(C(C)C)cc3)ccc2N1Cc1ccccc1` (centres unmarked) gave a melting point of 62 to 66 °C.

`O=C(Nc1ccc([N+](=O)[O-])cc1)Oc1ccc2c(c1)CCN2Cc1ccccc1`: the melting point fell in the range of 225 to 229 °C. With `CC(C)c1ccc(NC(=O)Oc2ccc3c(c2)CCN3)cc1`, the melting point was in the range of 166 to 170 °C.

Compound `O=C(Nc1ccc2ccccc2c1)Oc1ccc2c(c1)CCN2Cc1ccccc1` displayed a melting point of 161 to 167 °C. On the same count and under the same terms, as for `COC(=O)c1ccc(CN2CCc3cc(OC(=O)Nc4ccc(C(C)C)cc4)ccc32)cc1`, the figure is 149 to 153 °C; as for `CC(C)c1ccc(NC(=O)Oc2ccc3c(c2)CCN3Cc2ccc3ccccc3c2)cc1`, 136 to 140 °C; as for `CC(C)c1ccc(NC(=O)Oc2ccc3c(c2)CCN3Cc2ccco2)cc1`, 168 to 171 °C.

The compound `COc1cc(CN2CCc3cc(OC(=O)Nc4ccc(C(C)C)cc4)ccc32)ccc1N(C)C` came in with a melting point of 152 to 153 °C. Compound `CC(C)c1ccc(NC(=O)Oc2ccc3c(c2)CCN3Cc2ccc(O)c(Cl)c2)cc1` came in with a melting point of 170 to 174 °C. The same measure, in the same setting: as for `CC(C)c1ccc(NC(=O)Oc2ccc3c(c2)CCN3Cc2cc(N(C)C)c3ccccc3c2)cc1`, the figure is 75 to 80 °C; as for `CC(C)c1ccc(NC(=O)Oc2ccc3c(c2)CCN3Cc2cccc3ncccc23)cc1`, 195 to 199 °C; as for `CC(C)c1ccc(NC(=O)Oc2ccc3c(c2)CCN3Cc2ccc3ccccc3n2)cc1`, 150 to 152 °C.

`CC(C)c1ccc(NC(=O)Oc2ccc3c(c2)CCN3Cc2ccc3cc[nH]c3c2)cc1` returned a melting point of 194 to 196 °C. Still for that read-out and setting: under `O=C(Nc1ccc(C2CCCCC2)cc1)Oc1ccc2c(c1)CCN2Cc1ccccc1` stands 171 to 174 °C; under `O=C(Nc1ccncc1)Oc1ccc2c(c1)CCN2Cc1ccccc1`, 132 to 136 °C.

The IC50 is the concentration at which inhibition is half-maximal. The low end stands for higher potency, the high end for lower potency. On to `CN(C)CC(C)(C)CNC(=O)Oc1ccc2c(c1)CCN2Cc1ccccc1` [Example 156, 1-benzylindolin-5-yl 3-dimethylamino-2,2-dimethylpropylcarbamate], for which the IC50 in series [1] is 510 nM; in series [2], greater than 100 µM. The “Ratio AChE/BuChE” value in series [1] is on record as greater than 200.

For the compound `CC(=O)NCCC1CN(Cc2ccccc2)c2ccc(OC(=O)Nc3ccc(C(C)C)cc3)cc21` (centres unmarked) [Example 160, 3-(2-acetamidethyl)-1-benzylindolin-5-yl-4-isopropylphenylcarbamate], the 50% inhibitory concentration (IC50) in series [1] was 550 nM; in series [2], greater than 100 µM. The “Ratio AChE/BuChE” value in series [1] was greater than 180.

Regarding `CCCN(CCC)C(=O)CC1CN(Cc2ccccc2)c2ccc(OC(=O)Nc3ccc(C(C)C)cc3)cc21` (centres unmarked) [Example 161, 1-benzyl-3-(di-n-propylaminocarbonylmethyl)indolin-5-yl 4-isopropylphenylcarbamate], in series [1], the IC50 is 150 nM and the “Ratio AChE/BuChE” value is greater than 670. In series [2], the IC50 was greater than 100 µM. As to `CCCN(CCC)C(=O)CC1c2cc(OC(=O)Nc3ccc(C(C)C)cc3)ccc2N(Cc2ccccc2)C1C` (centres unmarked) [Example 162, 1-benzyl-3-(di-n-propylaminocarbonylmethyl)-2-methylindolin-5-yl 4-isopropyl phenylcarbamate], in series [1], 410 nM corresponded to half-maximal inhibition (IC50) and the “Ratio AChE/BuChE” value was greater than 240. In addition, the IC50 in series [2] was greater than 100 µM. With `CN(CC1CCCCC1)C(=O)Oc1ccc2c(c1)CCN2Cc1ccccc1` [Example 214, O-(1-benzylindolin-5-yl)-N-(cyclohexylmethyl)-N-methylcarbamate], in series [1], the IC50 is 51 nM and the “Ratio AChE/BuChE” value is recorded as greater than 2000. In addition, the “selectivity to butyrylcholinesterase (BuChE versus AChE inhibitory activity), in words” value in series [1] (summary of Tables 1-3) is reported as “much higher”. The IC50 in series [2] is greater than 100 µM. As to `CN(CC1CCCCC1)C(=O)Oc1ccc2c(c1)C(C)(C)CN2Cc1ccccc1` [Example 216, O-(1-benzyl-3,3-dimethylindolin-5-yl)-N-(cyclohexylmethyl)-N-methylcarbamate], in series [1], the IC50 turned out to be 2.4 nM and the “Ratio AChE/BuChE” value was found to be 23000. Moreover, the “selectivity to butyrylcholinesterase (BuChE versus AChE inhibitory activity), in words” value in series [1] (summary of Tables 1-3) is “much higher”. In series [2], this compound displayed an IC50 of 54 µM. For `CN(CC1CCOCC1)C(=O)Oc1ccc2c(c1)C(C)(C)CN2Cc1ccccc1` [Example 217, O-(1-benzyl-3,3-dimethylindolin-5-yl)-N-methyl-N-(4-tetrahydropyranylmethyl)carbamate], in series [1], the IC50 is 0.36 nM and the “Ratio AChE/BuChE” value came to 260000. In series [1] (summary of Tables 1-3), the “butyrylcholinesterase inhibitory activity, in words” value was “highest butyrylcholinesterase inhibitory activity” and the “selectivity to butyrylcholinesterase (BuChE versus AChE inhibitory activity), in words” value is given as “much higher; also recorded: highest selectivity to butyrylcholinesterase”. The compound also yielded an IC50 in series [2] of 93 µM. `CN(CC1CCOCC1)C(=O)Oc1ccc2c(c1)C(C)(C)CN2Cc1ccccn1` [Example 218, N-methyl-O-[1-(2-pyridylmethyl)-3,3-dimethylindolin-5-yl]-N-(4-tetrahydropyranylmethyl)carbamate]: in series [1], half-maximal inhibition (IC50) was put at 0.66 nM and the “Ratio AChE/BuChE” value was determined as 13000. Also, the “selectivity to butyrylcholinesterase (BuChE versus AChE inhibitory activity), in words” value in series [1] (summary of Tables 1-3) was “much higher”. The compound also displayed an IC50 in series [2] of 8.5 µM. For `CN(CC1CCOCC1)C(=O)Oc1ccc2c(c1)C(C)(C)CN2Cc1cccnc1` [Example 219, N-methyl-O-[1-(3-pyridylmethyl)-3,3-dimethylindolin-5-yl]-N-(4-tetrahydropyranylmethyl)carbamate], the results for the IC50 in series [1] and in series [2] were 1.2 nM and 20 µM, respectively. Besides, in series [1], the “Ratio AChE/BuChE” value was 17000. Besides, the “selectivity to butyrylcholinesterase (BuChE versus AChE inhibitory activity), in words” value in series [1] (summary of Tables 1-3) is given as “much higher”. The like results for `CN(CC1CCOCC1)C(=O)Oc1ccc2c(c1)C(C)(C)CN2Cc1ccncc1` [Example 220, N-methyl-O-[1-(4-pyridylmethyl)-3,3-dimethylindolin-5-yl]-N-(4-tetrahydropyranylmethyl)carbamate] were, in that order, 1.9 nM, 21 µM, 11000 and “much higher”.

As to `CN(C)C(=O)Oc1ccc2c(c1)CCN2Cc1ccccc1` [Example 221, N,N-dimethyl-O-(1-benzylindolin-5-yl)carbamate], in series [1], the 50% inhibitory concentration (IC50) was 170 nM and the “Ratio AChE/BuChE” value was found to be 76. The same compound yielded an IC50 in series [2] of 13 µM.
